“And” between values parts separate entries of the source, which are not always exact repeats. Equal entries are not always repeated.
Biological target: T1, Kinesin-like protein KIF11 [1-973] (Homo sapiens, UniProt P52732)
T1 construct: 1-973
T1 sequence (P52732 whole entry): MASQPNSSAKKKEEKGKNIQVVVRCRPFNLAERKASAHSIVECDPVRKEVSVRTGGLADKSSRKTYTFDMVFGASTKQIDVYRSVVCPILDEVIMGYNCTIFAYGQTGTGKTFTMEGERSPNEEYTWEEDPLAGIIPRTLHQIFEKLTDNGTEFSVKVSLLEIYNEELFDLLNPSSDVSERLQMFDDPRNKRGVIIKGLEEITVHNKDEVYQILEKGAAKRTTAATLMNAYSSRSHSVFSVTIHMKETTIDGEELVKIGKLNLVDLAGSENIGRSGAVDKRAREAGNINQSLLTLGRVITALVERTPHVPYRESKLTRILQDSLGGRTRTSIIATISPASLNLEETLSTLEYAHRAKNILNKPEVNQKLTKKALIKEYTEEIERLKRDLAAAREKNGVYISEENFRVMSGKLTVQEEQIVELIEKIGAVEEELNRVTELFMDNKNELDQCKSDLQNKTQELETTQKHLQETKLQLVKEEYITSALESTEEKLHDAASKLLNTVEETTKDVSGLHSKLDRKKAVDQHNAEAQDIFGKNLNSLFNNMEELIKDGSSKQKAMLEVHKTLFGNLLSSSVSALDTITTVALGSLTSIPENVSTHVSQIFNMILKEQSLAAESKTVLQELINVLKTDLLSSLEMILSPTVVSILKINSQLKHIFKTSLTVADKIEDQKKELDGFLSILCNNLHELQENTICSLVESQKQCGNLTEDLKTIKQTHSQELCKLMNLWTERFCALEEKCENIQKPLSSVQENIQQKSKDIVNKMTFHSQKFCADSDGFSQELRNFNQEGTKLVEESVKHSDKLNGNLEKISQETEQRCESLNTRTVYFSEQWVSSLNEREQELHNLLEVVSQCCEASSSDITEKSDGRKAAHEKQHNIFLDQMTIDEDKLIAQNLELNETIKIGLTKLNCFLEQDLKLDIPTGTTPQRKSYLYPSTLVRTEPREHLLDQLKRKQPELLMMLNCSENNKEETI
Assay: Microtubule-activated ATPase Kinetic Assay

| IC50 | Structure (SMILES) |
| --- | --- |
| 2.29 µM | CCOC(=O)CNC(=O)C(C1CC1)n1c(Cc2ccccc2)nc2cc(Br)c(Br)cc21 (stereo not given) [Ethyl 2-[2-(2-benzyl-5,6-dibromo-1H-benzo[d]imidazol-1-yl)-2-cyclopropylacetamido] acetate (Compound 12)] |
| 1.49 µM and 2.52 µM | CCOC(=O)CNC(=O)C(C1CC1)n1c(C(=O)c2ccccc2)nc2cc(Br)c(Br)cc21 (stereo not drawn) [(−)-Ethyl 2-[2-(2-benzoyl-5,6-dibromo-1H-benzo[d]imidazol-1-yl)-2 cyclopropylacetamido] acetate (Compound 21)] |
| 1.6 µM | CCCC(C(=O)NCC(=O)OCC)n1c(Cc2ccccc2)nc2cc(Cl)c(Cl)cc21 (stereo not given) [Ethyl 2-[2-(2-benzyl-5,6-dichloro-1H-benzo[d]imidazol-1-yl)pentanamido] acetate (Compound 9)] |
| 1.37 µM and 1.72 µM | CCCC(C(=O)NCC(=O)OCC)n1c(C(=O)c2ccccc2)nc2cc(Br)c(Br)cc21 (stereo not drawn) [(−)-Ethyl 2-[2-(2-benzoyl-5,6-dibromo-1H-benzo[d]imidazol-1-yl)pentanamido]acetate (Compound 23)] |
| 6.9 µM | CCOC(=O)C1C(C)=NC(=S)NC1c1cccc(O)c1 (stereo not given) [ethyl 4-(3-hydroxyphenyl)-6-methyl-2-sulfanylidene-3,4-dihydro-1H-pyrimidine-5-carboxylate] |
